# Laboratory results published in US11331299B2, “Medicinal use of serrulatane diterpenes” (The University of Sydney, priority 2016, dated 2022).
# Read-outs that look alike come from different tables or passages of the source.
# Test system: 280 human cancer cell lines
# Experiment: OncoPanel cell proliferation assay (10-day)
# Assay type: cell-based
# Settings: Homo sapiens; for EC50: read-out: Cell Count EC50; for GI50: read-out: Cell Count GI50; for IC50: read-out: Cell Count IC50
# [1] = C-4-II, C-4 II, Female GU - Cervix
# [2] = C-33-A, C-33A, Female GU - Cervix
# [3] = CAL-62, CAL-62, Endocrine - Thyroid
# [4] = CCF-STTG1, CCF-STTG1, CNS - Glioma
# [5] = CGTH-W-1, CGTH-W-1, Endocrine - Thyroid
# [6] = CHP-212, CHP-212, CNS - Neuroblastoma
# [7] = COLO-320-HSR, Colo 320 HSR, Colon
# [8] = COLO-829, COLO 829, Skin (Melanoma)
# [9] = COR-L105, COR-L105, Lung - NSCLC
# [10] = Ca-Ski, Ca Ski, Female GU - Ovary
compound,measurement,setting,value
"CC(C)=CCC[C@H](CO)[C@@H]1CC[C@@H](C)c2c1cc(C)c(O)c2O [Compound 1, 7,8,18-trihydroxyserrulat-14-ene]",EC50,"BT-474, BT474, Breast",5.41 µM
same,GI50,"BT-474, BT474, Breast",4.95 µM
same,IC50,"BT-474, BT474, Breast",5.46 µM
same,EC50,"BT-549, BT-549, Breast",3.14 µM
same,GI50,"BT-549, BT-549, Breast",3.12 µM
same,IC50,"BT-549, BT-549, Breast",3.14 µM
same,EC50,"BV-173, BV-173, Leukemia",3.8 µM
same,GI50,"BV-173, BV-173, Leukemia",3.79 µM
same,IC50,"BV-173, BV-173, Leukemia",3.8 µM
same,EC50,"BXPC-3, BxPC-3, Pancreas",3.29 µM
same,GI50,"BXPC-3, BxPC-3, Pancreas",3.29 µM
same,IC50,"BXPC-3, BxPC-3, Pancreas",3.3 µM
same,EC50,"BeWo, Placenta",9.06 µM
same,GI50,"BeWo, Placenta",8.92 µM
same,IC50,"BeWo, Placenta",9.06 µM
same,EC50,"C32, Skin (Melanoma)",2.11 µM
same,GI50,"C32, Skin (Melanoma)",1.81 µM
same,IC50,"C32, Skin (Melanoma)",2.11 µM
same,EC50,[1],1.09 µM
same,GI50,[1],1.09 µM
same,IC50,[1],1.1 µM
same,EC50,[2],7.18 µM
same,GI50,[2],7.08 µM
same,IC50,[2],7.18 µM
same,EC50,"CA46, CA46, Lymphoma",2.27 µM
same,GI50,"CA46, CA46, Lymphoma",2.26 µM
same,IC50,"CA46, CA46, Lymphoma",2.27 µM
same,EC50,"CAKI-1, Caki-1, Kidney",2.86 µM
same,GI50,"CAKI-1, Caki-1, Kidney",2.75 µM
same,IC50,"CAKI-1, Caki-1, Kidney",2.86 µM
same,EC50,"CAKI-2, Caki-2, Kidney",4.38 µM
same,GI50,"CAKI-2, Caki-2, Kidney",4.35 µM
same,IC50,"CAKI-2, Caki-2, Kidney",4.38 µM
same,EC50,"CAL-27, Cal 27, Head and Neck",2.16 µM
same,GI50,"CAL-27, Cal 27, Head and Neck",2.15 µM
same,IC50,"CAL-27, Cal 27, Head and Neck",2.16 µM
same,EC50,[3],1.69 µM
same,GI50,[3],1.69 µM
same,IC50,[3],1.69 µM
same,EC50,"CAMA-1, CAMA-1, Breast",3.51 µM
same,GI50,"CAMA-1, CAMA-1, Breast",3.4 µM
same,IC50,"CAMA-1, CAMA-1, Breast",3.51 µM
same,EC50,"CAPAN-1, Capan-1, Pancreas",> 30 µM
same,GI50,"CAPAN-1, Capan-1, Pancreas",> 30 µM
same,IC50,"CAPAN-1, Capan-1, Pancreas",> 30 µM
same,EC50,[4],5.79 µM
same,GI50,[4],5.24 µM
same,IC50,[4],6.6 µM
same,EC50,"CCRF-CEM, CCRFCEM, Leukemia",4.73 µM
same,GI50,"CCRF-CEM, CCRFCEM, Leukemia",4.71 µM
same,IC50,"CCRF-CEM, CCRFCEM, Leukemia",4.73 µM
same,EC50,"CEM/C1, CEM-C1, Leukemia",1.96 µM
same,GI50,"CEM/C1, CEM-C1, Leukemia",1.95 µM
same,IC50,"CEM/C1, CEM-C1, Leukemia",1.96 µM
same,EC50,"CFPAC-1, CFPAC-1, Pancreas",3.65 µM
same,GI50,"CFPAC-1, CFPAC-1, Pancreas",3.65 µM
same,IC50,"CFPAC-1, CFPAC-1, Pancreas",3.66 µM
same,EC50,[5],1.2 µM
same,GI50,[5],1.2 µM
same,IC50,[5],1.2 µM
same,EC50,"CHL-1, CHL-1, Skin (Melanoma)",1.37 µM
same,GI50,"CHL-1, CHL-1, Skin (Melanoma)",1.36 µM
same,IC50,"CHL-1, CHL-1, Skin (Melanoma)",1.37 µM
same,EC50,[6],1.43 µM
same,GI50,[6],1.41 µM
same,IC50,[6],1.43 µM
same,EC50,"CML-T1, CML-T1, Leukemia",1.93 µM
same,GI50,"CML-T1, CML-T1, Leukemia",1.93 µM
same,IC50,"CML-T1, CML-T1, Leukemia",1.93 µM
same,EC50,"COLO 201, Colo 201, Colon",0.92 µM
same,GI50,"COLO 201, Colo 201, Colon",0.92 µM
same,IC50,"COLO 201, Colo 201, Colon",0.92 µM
same,EC50,"COLO 205, Colo 205, Colon",1.31 µM
same,GI50,"COLO 205, Colo 205, Colon",1.31 µM
same,IC50,"COLO 205, Colo 205, Colon",1.31 µM
same,EC50,"COLO 320DM, Colon",3.2 µM
same,GI50,"COLO 320DM, Colon",3.18 µM
same,IC50,"COLO 320DM, Colon",3.2 µM
same,EC50,[7],3.09 µM
same,GI50,[7],3.13 µM
same,IC50,[7],3.13 µM
same,EC50,[8],0.68 µM
same,GI50,[8],0.62 µM
same,IC50,[8],0.68 µM
same,EC50,"COR-L23, COR-L23, Lung - NSCLC",7.18 µM
same,GI50,"COR-L23, COR-L23, Lung - NSCLC",7.14 µM
same,IC50,"COR-L23, COR-L23, Lung - NSCLC",7.18 µM
same,EC50,[9],1.44 µM
same,GI50,[9],1.42 µM
same,IC50,[9],1.45 µM
same,EC50,"CRO-AP2, CRO-AP2, Lymphoma",5.72 µM
same,GI50,"CRO-AP2, CRO-AP2, Lymphoma",5.66 µM
same,IC50,"CRO-AP2, CRO-AP2, Lymphoma",5.72 µM
same,EC50,[10],5.28 µM
same,GI50,[10],5.24 µM
same,IC50,[10],5.29 µM
same,EC50,"Calu-1, Calu1, Lung - NSCLC",3.1 µM
same,GI50,"Calu-1, Calu1, Lung - NSCLC",3.07 µM
same,IC50,"Calu-1, Calu1, Lung - NSCLC",3.1 µM
same,EC50,"Calu-6, Calu6, Lung - NSCLC",9.24 µM
same,GI50,"Calu-6, Calu6, Lung - NSCLC",8.59 µM
